Measurements published in US9781928B2, “Microbicidal composition” (Dow Global Technologies LLC, priority 2016, dated 2017).

Test system: Desulfovibrio longus ATCC 51456
Assay: Biocidal efficacy (bacterial kill) and synergy of glutaraldehyde and surfactants against anaerobic sulfate-reducing bacteria
Format: cell-based
Details: 35° C., 10^6 to 10^7 CFU/mL, salt solution
Protocol: Surfactants and biocides were evaluated for synergy by determining the synergy index (S.I.) of the combination. Synergy index was calculated based on the concentration required to achieve a certain level of bacterial kill when the two antimicrobial compounds (A and B) alone and in combinations. The test organism was anaerobic sulfate-reducing bacteria Desulfovibrio longus ATCC #51456. Surf. A R^1O(CH2CH(CH3)O)5(CH2CH2O)6H Surf. B R^1O(CH2CH(CH3)O)5(CH2CH2O)9H where R^1 is 2-ethylhexyl.
Inside an anaerobic chamber (Bactron anaerobic chamber), a deoxygenated sterile salt solution (3.1183 g of NaCl, 1.3082 mg of NaHCO3, 47.70 mg of KCl, 72.00 mg of CaCl2, 54.49 mg of MgSO4, 172.28 mg of Na2SO4, 43.92 mg of Na2CO3 in 1 L water) was inoculated with Desulfovibrio longus ATCC 51456 to a final bacterial concentration of 10^6 to 10^7 CFU/mL. Aliquots of this cell suspension were then treated with glutaraldehyde, and each of Surf A and B at selected active concentrations. After incubation at 35° C. for 2 hours, viable bacteria in the aliquots were enumerated using serial dilution method.
SI is calculated as follows: Ca/CA+Cb/CB=Synergy Index (“SI”)
Wherein: • Ca=Concentration of biocide A required to achieve a certain level of bacterial kill when used in combination with B • CA=Concentration of biocide A required to achieve a certain level of bacterial kill when used alone • Cb=Concentration of biocide B required to achieve a certain level of bacterial kill when used in combination with A • CB=Concentration of biocide B required to achieve a certain level of bacterial kill when used alone When the sum of Ca/CA and Cb/CB is greater than one, antagonism is indicated.

## O=CCCCC=O [Glut, glutaraldehyde, (1,5-pentanedial) CAS No. 111-30-8]
Glut concentration alone (1:0) or in combination with Surf. A
  Concentration (active ppm) for complete bacterial kill in 2 hours, Glut: 13.2 ppm
Glut concentration alone (1:0) or in combination with Surf. B
  Concentration (active ppm) for 99.99% bacterial kill in 2 hours, Glut: 5.9 ppm

## R^1O(CH2CH(CH3)O)5(CH2CH2O)6H where R^1 is 2-ethylhexyl [Surf. A]
Surf. A concentration alone (0:1) or in combination with Glut
  Concentration (active ppm) for complete bacterial kill in 2 hours, Surf. A: >100 ppm

## R^1O(CH2CH(CH3)O)5(CH2CH2O)9H where R^1 is 2-ethylhexyl [Surf. B]
Surf. B concentration alone (0:1) or in combination with Glut
  Concentration (active ppm) for 99.99% bacterial kill in 2 hours, Surf B: >100 ppm
